Results from US20030153506A1, “Combination product comprising melagatran and factor VIIa inhibitor” (priority 2000, published 2003).
One block for each molecule: values may come before it.

Columns and labels:
[1] = test system: Platelet poor plasma; experiment: APTT clotting time in spiked platelet poor plasma, synergy model (Berenbaum); assay type: biochemical, human; settings: for concentration of A required to reach the same APTT prolongation as that of the mixture (Ae): calculated from Eq 1; for concentration of B required to reach the same APTT prolongation as that of the mixture (Be): calculated from Eq 2
Protocol: Human blood from healthy volunteers, both men and women, was collected in 50 mL conical plastic tubes containing 5 mL of 0.13 mol/L of buffered tri-sodium citrate. The blood was immediately chilled on ice and centrifuged at […] for 20 minutes. Platelet poor plasma was then divided into fractions of 10 mL each and “spiked” with melagatran (Compound A) or with the title compound of Example 1 above (Compound B) to a final concentration that prolonged APTT by approximately 20%, 40%, 60% and 100%, respectively.
APTT was determined as follows: 100 μL of pre-warmed APTT reagent (Stago Diagnostica) was added to 100 μL of pre-warmed plasma and incubated for 180 s at 37° C. Coagulation was initiated by the addition of 100 μL of CaCl2 (0.025 mol/L). The clotting time was measured with a KC 10 Coagulometer, coupled to a CR-A calculator, CR 10 printer and PR60 heat block (Amelung GmbH, Lemago Germany). Each clotting test was performed in duplicate and the mean clotting time was used.
APTT for Compound A and Compound B were tested at 4 different concentrations and the results are shown in Table 1, in which Cp A and Cp B are the plasma concentrations of Compounds A and B, respectively. APTT values are expressed in seconds and, within brackets, as percentage prolongation over the baseline value.
In order to test a possible synergistic effect between Compounds A and B the following model was used. The concentrations of Compounds A and B that caused about 20%, 40% and 60% prolongation of APTT were first determined (Table 1). Equipotent concentrations of Compounds A and B, e.g. 0.08 μmol/L of A and 1.5 μmol/L of B, were then mixed and APTT for the mixtures were determined as above. An indication of synergy is obtained if APTT for this mixture is longer than APTT for a “mixture” of equipotent concentrations of Compound A itself (i.e. Compound A+Compound A at a concentration that prolongs APTT by 20% (0.08 μmol/L+0.08 μmol/L=0.16 μmol/L)). However, a true synergistic effect between two compounds can never be established unless the dose response curves for both individual compounds are known and all data applied to the algebraic model of Berenbaum's equation (see Clin. Exp. Immunol. (1977) 28, 18): […]
(Cp A in mixture/Ae)+(Cp B in mixture/Be)<1
In this equation, CpA and CpB are the plasma concentrations of Compounds A and B, respectively in the mixture, and Ae and Be are individual concentrations of Compounds A and B that are required to obtain the same APTT results as that of the mixture. These concentrations can be calculated from the linear dose-responses for Compounds A and B, respectively (Equations 1 and 2).

[2] = biological target: T1, Human α-thrombin (Homo sapiens, UniProt P00734); experiment: Test B: thrombin inhibition, chromogenic robotic assay; assay type: biochemical; settings: S-2366 0.30 mmol/L, 40 min 37° C.
T1 construct: Human α-thrombin, Sigma Chemical Co. or Hematologic Technologies; purchased Sigma Chemical Co. or Hematologic Technologies
Protocol: Determination of Thrombin Inhibition with a Chromogenic, Robotic Assay
Thrombin inhibitor potency was measured with a chromogenic substrate method, in a Plato 3300 robotic microplate processor (Rosys AG, CH-8634 Hombrechtikon, Switzerland), using 96-well, half volume microtitre plates (Costar, Cambridge, Mass., U.S.A.; Cat No 3690). Stock solutions of test substance in DMSO (72 μL), 0.1-1 mmol/L, were diluted serially 1:3 (24+48 μL) with DMSO to obtain ten different concentrations, which were analysed as samples in the assay. 2 μL of test sample was diluted with 124 μL assay buffer, 12 μL of chromogenic substrate solution (S-2366, Chromogenix, Mölndal, Sweden) in assay buffer and finally 12 μL of α-thrombin solution (Human α-thrombin, Sigma Chemical Co. or Hematologic Technologies) in assay buffer, were added, and the samples mixed. The final assay concentrations were: test substance 0.00068-13.3 μmol/L, S-2366 0.30 mmol/L, α-thrombin 0.020 NIHU/mL. The linear absorbance increment during 40 minutes incubation at 37° C. was used for calculation of percentage inhibition for the test samples, as compared to blanks without inhibitor. The IC50-robotic value, corresponding to the inhibitor concentration which causes 50% inhibition of the thrombin activity, was calculated from a log concentration vs. % inhibition curve.

[3] = test system: human plasma; experiment: Test C: prothrombin time (PT) assay; assay type: biochemical; settings: Thromborel S, doubling of the clotting time
Protocol: Prothrombin Time (PT) Assay
The following reagents were prepared: An aliquot of a frozen human plasma pool, containing citrate as an anticoagulant, was rapidly thawed at 37° C. A 10 mM stock solution of the inhibitor in DMSO was diluted with saline containing 0.1% BSA to a final 1% of DMSO. Series dilutions were made in steps of 1:3 for a dose response titration. Thromborel® S from Dade Behring GmbH (Marburg, Germany), was reconstituted 1:10 with 25 mM CaCl2, according to the instructions of the manufacturer. 2.5μL of inhibitor was mixed with 22.5 μL human plasma, incubated for 1 min. at 37° C. in the cup of an Amelung KC10 microcoagulometer from Heinrich Amelung GmbH (Lemgo, Germany). Coagulation was initiated by addition of 50 μL Thromborel S, which was pre-warmed at 37° C. The time to clot was determined (CTI) for each inhibitor concentration ([I]) in duplo. A titration curve was made by plotting the inverse clotting time versus the inhibitor concentration. The IC50 value, the time to double the clotting time, was determined by non-linear regression to the equation:
CT0/CTI=1/(1+([I]/IC50)^S)
where “CT0”=the clotting time without inhibitor added, and “s” the slope.

[4] = biological target: T2, Recombinant human factor VIIa (Homo sapiens, UniProt P08709); experiment: Test A: chromogenic robot method for Factor VIIa; assay type: biochemical
T2 construct: Recombinant human factor VIIa (rFVIIa, product no 407); purchased American Diagnostica Inc. product no 407 (rFVIIa); product no 4500 (rTF)
T2 sequence (P08709 213-466 limits assumed): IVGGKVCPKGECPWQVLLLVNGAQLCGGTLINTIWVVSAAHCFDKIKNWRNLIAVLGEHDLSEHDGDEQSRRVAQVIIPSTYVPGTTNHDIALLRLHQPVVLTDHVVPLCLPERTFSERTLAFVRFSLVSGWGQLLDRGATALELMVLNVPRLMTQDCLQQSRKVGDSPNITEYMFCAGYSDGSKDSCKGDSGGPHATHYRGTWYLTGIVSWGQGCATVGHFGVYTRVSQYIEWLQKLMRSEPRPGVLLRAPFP
T2 sequence (P08709 61-212 limits assumed): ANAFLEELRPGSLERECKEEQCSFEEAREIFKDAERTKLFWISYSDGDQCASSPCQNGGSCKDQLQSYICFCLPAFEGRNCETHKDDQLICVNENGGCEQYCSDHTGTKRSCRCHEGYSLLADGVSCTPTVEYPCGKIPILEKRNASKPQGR
T2 sequence (P13726 33-295 partner): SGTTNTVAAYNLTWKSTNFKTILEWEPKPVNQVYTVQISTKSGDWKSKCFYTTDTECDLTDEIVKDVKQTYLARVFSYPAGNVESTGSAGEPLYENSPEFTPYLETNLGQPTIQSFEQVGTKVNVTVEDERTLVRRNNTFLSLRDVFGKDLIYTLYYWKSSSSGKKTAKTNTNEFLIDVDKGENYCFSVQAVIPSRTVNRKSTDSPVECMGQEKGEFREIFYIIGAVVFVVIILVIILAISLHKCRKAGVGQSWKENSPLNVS
Protocol: Chromogenic Robot Method for Factor VIIa:
The chromogenic substrate Spectrozyme FVIIa, CH3SO2-D-CHA-But-Arg-pNA (pefachrome 5979 from Pentapharm, Switzerland) was purchased from American-Diagnostica Inc. (Greenwich, Conn., U.S.A.). The KM under the conditions of the assay was determined separately. Recombinant human factor VIIa (rFVIIa, product no 407) and non-lipidated recombinant human tissue-factor (rTF, product no 4500) were purchased from American Diagnostica Inc. The stock solutions of rFVIIa (1.08 mg protein dissolved with 1 mL water to 21.6 μM in 20 mM Tris-HCl, 100 mM NaCl, pH 7.4) and rTF (1 mg protein with 1.5 mL water to 19 μM in 50 mM Tris-HCl, pH 8.0, 150 mM NaCl, CHAPS (3-((3-cholamidopropyl)dimethylammoniol)-1-propanesulphonate; 10 mM) and 200 mM mannitol) were stored in 0.5 mL reagent tubes at −80° C. […] After mixing and incubation for 40 minutes at 37° C., the optical absorbance difference was read at 405 nm. The IC50 value for each compound was calculated by non-linear regression to the equation:
Where AI=the final absorbance at 405 nm in the presence of the inhibitor, A0=in the absence of inhibitor, and s the slope in the dose titration curve, which has the theoretical value of 1 for a pure competitive inhibitor. […]

[5] = mixture 0.08 (A) + 1.5 (B) μmol/L
[6] = mixture 0.18 (A) + 3.2 (B) μmol/L
[7] = mixture 0.27 (A) + 4.9 (B) μmol/L

Structure (SMILES): N=C(N)c1ccc(CNC(=O)[C@@H]2CCN2C(=O)[C@H](NCC(=O)O)C2CCCCC2)cc1 [Compound A, HOOC—CH2—(R)Cgl-Aze-Pab-H]
- APTT ([1]; Compound A + A, 0.08 + 0.08 = 0.16 μmol/L): 51.8 s
- APTT ([1]; Compound A + A, 0.18 + 0.18 = 0.36 μmol/L): 62.4 s
- APTT ([1]; Compound A + A, 0.27 + 0.27 = 0.54 μmol/L): 71.9 s
- APTT percentage prolongation over the baseline value ([1]; Cp A 0.08 μmol/L): 24%
- APTT ([1]; Cp A 0.08 μmol/L, baseline 36.8 s): 45.8 s
- APTT percentage prolongation over the baseline value ([1]; Cp A 0.18 μmol/L): 46%
- APTT ([1]; Cp A 0.18 μmol/L, baseline 36.8 s): 53.8 s
- APTT percentage prolongation over the baseline value ([1]; Cp A 0.27 μmol/L): 61%
- APTT ([1]; Cp A 0.27 μmol/L, baseline 36.8 s): 59.2 s
- APTT percentage prolongation over the baseline value ([1]; Cp A 0.56 μmol/L): 96%
- APTT ([1]; Cp A 0.56 μmol/L, baseline 36.8 s): 72.1 s
- concentration of A required to reach the same APTT prolongation as that of the mixture (Ae) [1, 5]: 0.21 µmol/L
- concentration of A required to reach the same APTT prolongation as that of the mixture (Ae) [1, 6]: 0.53 µmol/L
- concentration of A required to reach the same APTT prolongation as that of the mixture (Ae) [1, 7]: 0.83 µmol/L

- IC50 [2]: 6.2 µM
- IC50 [3]: 3.8 µM
- IC50 ([4]; Test A, rFVIIa-rTF, Spectrozyme FVIIa 0.2 mM, 40 min 37° C.): 0.064 µM
- selectivity for Factor VIIa ([4]; conclusion from Tests A, B and C): selective inhibitor of Factor VIIa
Structure (SMILES): CC(C)C[C@H](NC(=O)[C@H](NS(=O)(=O)Cc1cccc(C(=O)O)c1)C(C)C)C(=O)NCc1ccc(C(=N)N)cc1 [Example 1, N-[(3-Carboxybenzyl)sulfonyl]-D-valyl-N^1-{4-[amino(imino)methyl]-benzyl}-L-leucinamide]
- APTT percentage prolongation over the baseline value ([1]; Cp B 1.50 μmol/L): 26%
- APTT ([1]; Cp B 1.50 μmol/L, baseline 35.7 s): 45.2 s
- APTT percentage prolongation over the baseline value ([1]; Cp B 3.20 μmol/L): 44%
- APTT ([1]; Cp B 3.20 μmol/L, baseline 35.7 s): 51.5 s
- APTT percentage prolongation over the baseline value ([1]; Cp B 4.90 μmol/L): 62%
- APTT ([1]; Cp B 4.90 μmol/L, baseline 35.7 s): 57.7 s
- APTT percentage prolongation over the baseline value ([1]; Cp B 8.30 μmol/L): 105%
- APTT ([1]; Cp B 8.30 μmol/L, baseline 35.7 s): 73.3 s
- concentration of B required to reach the same APTT prolongation as that of the mixture (Be) [1, 5]: 3.87 µmol/L
- concentration of B required to reach the same APTT prolongation as that of the mixture (Be) [1, 6]: 7.98 µmol/L
- concentration of B required to reach the same APTT prolongation as that of the mixture (Be) [1, 7]: 11.80 µmol/L
